Source: ChEMBL document CHEMBL6096658, “Discovery of Potent, Highly Selective, and Efficacious SMARCA2 Degraders” (J Med Chem, 2025)
Active and inactive are the calls of the source. The rule behind the calls is not given here.

Experiments:
[1] = target: T1, von Hippel-Lindau disease tumor suppressor/SWI/SNF-related matrix-associated actin-dependent regulator of chromatin subfamily A member 2 (Homo sapiens, UniProt P51531+P40337); assay: In vivo PROTAC activity at VHL/ SMARCA2 in female BALB/c mouse xenografted with human HT-1080 cells assessed as reduction in SMARCA2 level in tumor at 1 mg/kg, iv measured after 24 hrs relative to control; type: functional, organism-based; parameters: scale not given: the % may be the effect or the level left
Target sequence in this assay (P40337 whole entry, looked up): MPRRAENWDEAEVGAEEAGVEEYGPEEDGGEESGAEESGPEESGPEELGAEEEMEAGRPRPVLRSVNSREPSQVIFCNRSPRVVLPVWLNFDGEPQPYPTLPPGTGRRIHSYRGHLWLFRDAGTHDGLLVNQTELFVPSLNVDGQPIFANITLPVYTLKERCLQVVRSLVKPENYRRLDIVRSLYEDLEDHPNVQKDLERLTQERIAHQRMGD
Target sequence in this assay (P51531 whole entry, looked up): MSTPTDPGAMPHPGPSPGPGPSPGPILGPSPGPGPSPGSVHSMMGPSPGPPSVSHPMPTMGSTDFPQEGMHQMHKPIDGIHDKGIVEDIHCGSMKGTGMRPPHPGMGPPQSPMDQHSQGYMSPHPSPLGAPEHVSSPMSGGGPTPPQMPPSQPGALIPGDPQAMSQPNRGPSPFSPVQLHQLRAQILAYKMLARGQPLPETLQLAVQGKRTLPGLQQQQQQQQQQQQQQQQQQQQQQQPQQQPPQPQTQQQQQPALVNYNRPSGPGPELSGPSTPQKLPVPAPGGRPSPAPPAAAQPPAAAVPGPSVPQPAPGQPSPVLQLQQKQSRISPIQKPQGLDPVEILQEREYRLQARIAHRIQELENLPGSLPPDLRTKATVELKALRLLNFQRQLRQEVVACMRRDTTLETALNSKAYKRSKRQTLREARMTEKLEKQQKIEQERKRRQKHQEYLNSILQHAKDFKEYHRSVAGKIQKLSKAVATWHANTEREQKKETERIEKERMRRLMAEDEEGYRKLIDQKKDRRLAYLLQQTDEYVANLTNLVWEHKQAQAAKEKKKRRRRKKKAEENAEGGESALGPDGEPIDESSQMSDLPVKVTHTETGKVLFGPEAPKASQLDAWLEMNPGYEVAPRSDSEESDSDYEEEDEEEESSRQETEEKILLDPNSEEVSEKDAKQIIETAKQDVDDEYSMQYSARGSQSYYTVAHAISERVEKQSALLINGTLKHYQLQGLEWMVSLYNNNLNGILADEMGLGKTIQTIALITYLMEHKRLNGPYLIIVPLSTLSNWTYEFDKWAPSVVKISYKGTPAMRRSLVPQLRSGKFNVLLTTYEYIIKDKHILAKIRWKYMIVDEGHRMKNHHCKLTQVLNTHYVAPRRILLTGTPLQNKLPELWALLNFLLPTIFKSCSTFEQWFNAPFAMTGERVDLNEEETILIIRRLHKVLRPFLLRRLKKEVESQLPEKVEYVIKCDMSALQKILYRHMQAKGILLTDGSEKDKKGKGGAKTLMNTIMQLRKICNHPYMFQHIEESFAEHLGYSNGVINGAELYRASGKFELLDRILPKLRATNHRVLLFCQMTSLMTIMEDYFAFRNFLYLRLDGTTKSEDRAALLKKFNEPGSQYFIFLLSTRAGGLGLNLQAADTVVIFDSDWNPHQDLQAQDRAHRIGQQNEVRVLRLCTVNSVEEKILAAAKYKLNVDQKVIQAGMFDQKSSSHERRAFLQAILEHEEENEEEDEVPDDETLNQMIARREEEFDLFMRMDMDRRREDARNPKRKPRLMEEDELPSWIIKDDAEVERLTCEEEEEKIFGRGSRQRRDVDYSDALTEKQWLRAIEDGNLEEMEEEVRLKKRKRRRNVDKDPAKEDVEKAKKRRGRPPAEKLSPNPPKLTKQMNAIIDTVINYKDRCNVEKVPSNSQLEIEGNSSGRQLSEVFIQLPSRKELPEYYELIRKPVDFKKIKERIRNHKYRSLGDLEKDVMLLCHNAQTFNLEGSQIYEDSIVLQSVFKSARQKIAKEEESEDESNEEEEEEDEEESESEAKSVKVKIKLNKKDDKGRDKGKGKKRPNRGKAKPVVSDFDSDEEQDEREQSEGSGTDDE

[2] = target: von Hippel-Lindau disease tumor suppressor (Homo sapiens, UniProt P40337); assay: Binding affinity to VHL (unknown origin) incubated for 30 mins by HTRF assay
Sequence of von Hippel-Lindau disease tumor suppressor (P40337 whole entry): as the sequence (P40337 whole entry, looked up) above

[3] = target: T1, von Hippel-Lindau disease tumor suppressor/SWI/SNF-related matrix-associated actin-dependent regulator of chromatin subfamily A member 2; assay: PROTAC activity at VHL/SMARCA2 in human HT-1080 cells assessed as induction of SMARCA2 degradation incubated for 24 hrs by Nano-Glo HiBiT Lytic Detection Assay; type: cell-based
[4] = target: T1, von Hippel-Lindau disease tumor suppressor/SWI/SNF-related matrix-associated actin-dependent regulator of chromatin subfamily A member 2; assay: PROTAC activity at VHL/SMARCA2 in human HT-1080 cells assessed as induction of SMARCA2 degradation by measuring maximum efficacy incubated for 6 hrs by Nano-Glo HiBiT Lytic Detection Assay relative to control; type: cell-based
Target sequence in this assay (P40337 whole entry, looked up): as above
Target sequence in this assay (P51531 whole entry, looked up): as the sequence (P51531 whole entry, looked up) above

[5] = target: T2, von Hippel-Lindau disease tumor suppressor/SWI/SNF-related matrix-associated actin-dependent regulator of chromatin subfamily A member 4 (Homo sapiens, UniProt P51532+P40337); assay: PROTAC activity at VHL/SMARCA4 in human HT-1080 cells assessed as induction of SMARCA4 degradation incubated for 24 hrs by Nano-Glo HiBiT Lytic Detection Assay; type: cell-based
[6] = target: T2, von Hippel-Lindau disease tumor suppressor/SWI/SNF-related matrix-associated actin-dependent regulator of chromatin subfamily A member 4; assay: PROTAC activity at VHL/SMARCA4 in human HT-1080 cells assessed as induction of SMARCA4 degradation by measuring maximum efficacy incubated for 6 hrs by Nano-Glo HiBiT Lytic Detection Assay relative to control; type: cell-based
Target sequence in this assay (P40337 whole entry, looked up): as the sequence (P40337 whole entry, looked up) above
Target sequence in this assay (P51532 whole entry, looked up): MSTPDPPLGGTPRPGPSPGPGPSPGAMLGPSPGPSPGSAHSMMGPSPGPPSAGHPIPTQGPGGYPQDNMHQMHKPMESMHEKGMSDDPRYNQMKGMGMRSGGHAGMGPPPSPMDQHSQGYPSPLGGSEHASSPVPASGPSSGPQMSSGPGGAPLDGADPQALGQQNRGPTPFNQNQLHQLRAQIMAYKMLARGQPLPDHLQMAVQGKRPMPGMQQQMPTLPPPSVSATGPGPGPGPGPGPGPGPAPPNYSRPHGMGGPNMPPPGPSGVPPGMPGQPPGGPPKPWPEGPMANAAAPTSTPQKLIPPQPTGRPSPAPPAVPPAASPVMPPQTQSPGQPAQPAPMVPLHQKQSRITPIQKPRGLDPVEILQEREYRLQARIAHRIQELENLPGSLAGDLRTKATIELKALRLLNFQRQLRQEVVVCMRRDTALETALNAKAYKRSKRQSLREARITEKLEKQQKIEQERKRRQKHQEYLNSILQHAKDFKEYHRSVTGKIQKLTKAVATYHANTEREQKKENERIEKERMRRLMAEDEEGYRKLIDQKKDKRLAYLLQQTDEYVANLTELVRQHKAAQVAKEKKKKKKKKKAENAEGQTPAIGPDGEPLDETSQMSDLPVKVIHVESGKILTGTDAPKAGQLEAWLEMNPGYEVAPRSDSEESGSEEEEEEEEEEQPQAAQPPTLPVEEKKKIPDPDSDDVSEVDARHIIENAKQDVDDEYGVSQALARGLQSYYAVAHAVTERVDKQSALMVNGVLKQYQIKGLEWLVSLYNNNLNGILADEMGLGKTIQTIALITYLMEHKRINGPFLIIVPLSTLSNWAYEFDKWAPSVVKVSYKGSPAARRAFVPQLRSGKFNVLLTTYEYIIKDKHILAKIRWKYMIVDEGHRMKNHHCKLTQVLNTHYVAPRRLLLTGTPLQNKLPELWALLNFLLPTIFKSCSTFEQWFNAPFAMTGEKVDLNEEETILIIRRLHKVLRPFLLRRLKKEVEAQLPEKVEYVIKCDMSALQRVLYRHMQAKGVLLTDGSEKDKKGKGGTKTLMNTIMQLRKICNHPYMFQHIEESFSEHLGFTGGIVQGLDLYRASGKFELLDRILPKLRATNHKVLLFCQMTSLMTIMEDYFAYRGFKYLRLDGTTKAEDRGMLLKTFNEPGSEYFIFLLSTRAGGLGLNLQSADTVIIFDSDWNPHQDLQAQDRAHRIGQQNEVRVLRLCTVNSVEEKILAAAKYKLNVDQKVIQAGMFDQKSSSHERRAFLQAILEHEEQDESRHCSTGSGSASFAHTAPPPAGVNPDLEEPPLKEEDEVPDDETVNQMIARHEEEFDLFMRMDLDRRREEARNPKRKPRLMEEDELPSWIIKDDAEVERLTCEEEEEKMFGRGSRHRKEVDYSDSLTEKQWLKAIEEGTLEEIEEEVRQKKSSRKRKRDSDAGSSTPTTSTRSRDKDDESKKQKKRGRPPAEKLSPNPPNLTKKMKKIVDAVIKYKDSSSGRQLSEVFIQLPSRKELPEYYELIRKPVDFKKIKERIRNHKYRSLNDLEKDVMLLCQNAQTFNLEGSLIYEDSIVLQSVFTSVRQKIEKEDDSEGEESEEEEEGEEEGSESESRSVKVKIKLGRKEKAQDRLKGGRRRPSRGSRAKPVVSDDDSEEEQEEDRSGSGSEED

[7] = Selectivity ratio of DC50 for PROTAC activity at VHL/SMARCA4 in human HT-1080 cells (unknown origin) to DC50 for VHL/SMARCA2 in human HT-1080 cells (unknown origin); type: cell-based
NCI-H838 [8] = assay: Antiproliferative activity against human NCI-H838 cells assessed as cell growth inhibition incubated for 6 days by Cell Titer Glo assay; type: functional; conditions: NCI-H838, 144 h, time 6 day
Calu-6 [9] = assay: Antiproliferative activity against human Calu-6 cells assessed as cell growth inhibition incubated for 6 days by Cell Titer Glo assay; type: functional; conditions: Calu-6, 144 h, time 6 day
[10] = target: T1, von Hippel-Lindau disease tumor suppressor/SWI/SNF-related matrix-associated actin-dependent regulator of chromatin subfamily A member 2; assay: PROTAC activity at VHL/SMARCA2 in human HT-1080 cells assessed as induction of SMARCA2 degradation measured after 6 hrs by Nano-Glo HiBiT Lytic Detection Assay; type: cell-based; conditions: dose 0.02-1000 nM
Target sequence in this assay (P40337 whole entry, looked up): as the sequence (P40337 whole entry, looked up) above
Target sequence in this assay (P51531 whole entry, looked up): as the sequence (P51531 whole entry, looked up) above

[11] = target: T1, von Hippel-Lindau disease tumor suppressor/SWI/SNF-related matrix-associated actin-dependent regulator of chromatin subfamily A member 2; assay: PROTAC activity at VHL/SMARCA2 in human HT-1080 cells assessed as induction of SMARCA2 degradation at 0.02 to 1000 nM by Nano-Glo HiBiT Lytic Detection Assay; type: cell-based; conditions: dose 0.02-1000 nM, time 6-24 hrs
Target sequence in this assay (P40337 whole entry, looked up): as the sequence (P40337 whole entry, looked up) above
Target sequence in this assay (P51531 whole entry, looked up): as the sequence (P51531 whole entry, looked up) above

[12] = target: T1, von Hippel-Lindau disease tumor suppressor/SWI/SNF-related matrix-associated actin-dependent regulator of chromatin subfamily A member 2; assay: PROTAC activity at VHL/SMARCA2 in human HT-1080 cells assessed as induction of SMARCA2 degradation pretreated with MG132 followed by compound addition and measured after 6 hrs by Nano-Glo HiBiT Lytic Detection Assay; type: cell-based
Target sequence in this assay (P40337 whole entry, looked up): as the sequence (P40337 whole entry, looked up) above
Target sequence in this assay (P51531 whole entry, looked up): as the sequence (P51531 whole entry, looked up) above

[13] = target: T1, von Hippel-Lindau disease tumor suppressor/SWI/SNF-related matrix-associated actin-dependent regulator of chromatin subfamily A member 2; assay: PROTAC activity at VHL/SMARCA2 in human HT-1080 cells assessed as induction of SMARCA2 degradation pretreated with MLN4924 followed by compound addition and measured after 6 hrs by Nano-Glo HiBiT Lytic Detection Assay; type: cell-based
Target sequence in this assay (P40337 whole entry, looked up): as the sequence (P40337 whole entry, looked up) above
Target sequence in this assay (P51531 whole entry, looked up): as the sequence (P51531 whole entry, looked up) above

[14] = Metabolic stability in female BALB/c mouse microsomes assessed as half life administered intravenously; type: ADME; conditions: route iv
NCI-H838 [15] = assay: Antiproliferative activity against human NCI-H838 cells assessed as inhibition of cell proliferation incubated for 6 days by Cell Titer Glo assay; type: functional, cell-based; conditions: time 6.0 day
NCI-H1573 = assay: Antiproliferative activity against human NCI-H1573 cells assessed as inhibition of cell proliferation incubated for 6 days by Cell Titer Glo assay; type: functional, cell-based; conditions: time 6.0 day
NCI-H1568 = assay: Antiproliferative activity against human NCI-H1568 cells assessed as inhibition of cell proliferation incubated for 6 days by Cell Titer Glo assay; type: functional, cell-based; conditions: time 6.0 day
Calu-6 [16] = assay: Antiproliferative activity against wild type human Calu-6 cells assessed as inhibition of cell proliferation incubated for 6 days by Cell Titer Glo assay; type: functional, cell-based; conditions: time 6.0 day
HT-1080 = assay: Antiproliferative activity against wild type human HT-1080 cells assessed as inhibition of cell proliferation incubated for 6 days by Cell Titer Glo assay; type: functional, cell-based; conditions: time 6.0 day
NCI-H1373 = assay: Antiproliferative activity against wild type human NCI-H1373 cells assessed as inhibition of cell proliferation incubated for 6 days by Cell Titer Glo assay; type: functional, cell-based; conditions: time 6.0 day
[17] = target: T1, von Hippel-Lindau disease tumor suppressor/SWI/SNF-related matrix-associated actin-dependent regulator of chromatin subfamily A member 2; assay: In vivo PROTAC activity at VHL/ SMARCA2 in female BALB/c mouse xenografted with human HT-1080 cells assessed as reduction in SMARCA2 level in tumor at 10 mg/kg, iv measured after 24 hrs relative to control; type: functional, organism-based; parameters: scale not given: the % may be the effect or the level left
[18] = target: T2, von Hippel-Lindau disease tumor suppressor/SWI/SNF-related matrix-associated actin-dependent regulator of chromatin subfamily A member 4; assay: In vivo PROTAC activity at VHL/ SMARCA4 in female BALB/c mouse xenografted with human HT-1080 cells assessed as increase in SMARCA4 level administered intravenously and measured after 24 hrs; type: functional, organism-based; conditions: route iv
Target sequence in this assay (P40337 whole entry, looked up): as the sequence (P40337 whole entry, looked up) above
Target sequence in this assay (P51532 whole entry, looked up): as the sequence (P51532 whole entry, looked up) above

[19] = target: T2, von Hippel-Lindau disease tumor suppressor/SWI/SNF-related matrix-associated actin-dependent regulator of chromatin subfamily A member 4; assay: PROTAC activity at VHL/SMARCA4 in human HT-1080 cells assessed as induction of SMARCA4 degradation pretreated with MG132 followed by compound addition and measured after 6 hrs by Nano-Glo HiBiT Lytic Detection Assay; type: cell-based
Target sequence in this assay (P40337 whole entry, looked up): as the sequence (P40337 whole entry, looked up) above
Target sequence in this assay (P51532 whole entry, looked up): as the sequence (P51532 whole entry, looked up) above

[20] = target: T2, von Hippel-Lindau disease tumor suppressor/SWI/SNF-related matrix-associated actin-dependent regulator of chromatin subfamily A member 4; assay: PROTAC activity at VHL/SMARCA4 in human HT-1080 cells assessed as induction of SMARCA4 degradation pretreated with MLN4924 followed by compound addition and measured after 6 hrs by Nano-Glo HiBiT Lytic Detection Assay; type: cell-based
Target sequence in this assay (P40337 whole entry, looked up): as the sequence (P40337 whole entry, looked up) above
Target sequence in this assay (P51532 whole entry, looked up): as the sequence (P51532 whole entry, looked up) above

[21] = Metabolic stability in female BALB/c mouse microsomes assessed as hepatic extraction ratio administered intravenously; type: ADME; conditions: route iv, read-out: ERH
[22] = target: SWI/SNF-related matrix-associated actin-dependent regulator of chromatin subfamily A member 2 (Homo sapiens, UniProt P51531); assay: Binding affinity to SMARCA2 (unknown origin) incubated for 30 mins by HTRF assay
[23] = target: SWI/SNF-related matrix-associated actin-dependent regulator of chromatin subfamily A member 4 (Homo sapiens, UniProt P51532); assay: Binding affinity to SMARCA4 (unknown origin) incubated for 30 mins by HTRF assay
[24] = target: T1, von Hippel-Lindau disease tumor suppressor/SWI/SNF-related matrix-associated actin-dependent regulator of chromatin subfamily A member 2; assay: Binding affinity to flag-tagged SMARCA2/VHL (unknown origin) assessed as ternary complex formation by measuring HTRF signal incubated for 120 mins by Envision reader analysis; type: protein assay
Calu-6 [25] = assay: Antiproliferative activity against human Calu-6 cells assessed as inhibition of cell growth at 1 uM incubated for 6 days by Cell Titer Glo assay; type: functional; conditions: Calu-6, 144 h, time 6 day

Row | Structure (SMILES) | IC50 [2] | DC50 [3] | Emax [4] | DC50 [5] | Emax [6] | Ratio [7] | GI50 (NCI-H838 [8]) | GI50 (Calu-6 [9]) | half-life [14] | other results
1 | Cc1ncsc1-c1ccc([C@H](C)NC(=O)[C@@H]2C[C@@H](O)CN2C(=O)[C@@H](n2cc([C@H]3CC[C@H](CN4CCC(c5ccc6c(c5)-n5c(nc(=O)c7c(Cl)cccc75)C6(C)C)CC4)CC3)nn2)C(C)(C)C)cc1 | 25 nM | 1.3 nM | 97% | 94 nM | 68% | 72 | 34 nM | > 1000 nM | 10 h | Activity [1]: 83%; Activity [10]: Dose-dependent-effect; Activity [11]: Time-dependent-effect; Activity [12]: inactive; Activity [13]: inactive; Activity (NCI-H838 [15]): Active; Activity (NCI-H1573): Active; Activity (NCI-H1568): Active; Activity (Calu-6 [16]): Active; Less Activity Observed; Activity (HT-1080): Active; Less Activity Observed; Activity (NCI-H1373): Active; Less Activity Observed; Activity [17]: > 95%; Activity [18]: Active; Activity [19]: inactive; Activity [20]: inactive
2 | Cc1ncsc1-c1ccc([C@H](C)NC(=O)[C@@H]2C[C@@H](O)CN2C(=O)[C@@H](n2cc([C@H]3CC[C@H](CN4CCC(c5ccc6c(c5)C(C)(C)c5nc(=O)c7c(Cl)cccc7n5-6)CC4)CC3)nn2)C(C)(C)C)cc1 | 1.5 nM | 0.28 nM | 97% | 12 nM | 78% | 43 | 32 nM | > 1000 nM | 1.5 h | hepatic extraction ratio [21]: 0.44
3 | Cc1ncsc1-c1ccc([C@H](C)NC(=O)[C@@H]2C[C@@H](O)CN2C(=O)[C@@H](c2cc(N3CCC(CN4CCC(c5ccc6c(c5)-n5c(nc(=O)c7c(Cl)cccc75)C6(C)C)CC4)CC3)no2)C(C)C)cc1 | 8.6 nM | 1.7 nM | 97% | 63 nM | 69% | 37 | 27 nM | > 1000 nM |  | IC50 [22]: 30 nM; IC50 [23]: 63 nM; Activity [24]: Active; Smarca2-Vhl Shows 60% Greater Auc Compared To Smarca4-Vhl Was Observed; inhibition at 1 µM (Calu-6 [25]): < 15%
